These are literature values, as cited in US20220273652A1, “PHARMACEUTICAL COMPOSITION COMPRISING HMG-COA REDUCTASE INHIBITORS AND FENOFIBRATE” (INTAS PHARMACEUTICALS LTD., priority 2019, published 2022).

The test system of the data set is cytochrome P450. To be noted: human hepatocytes.

Consider `CC(C)c1nc(N(C)S(C)(=O)=O)nc(-c2ccc(F)cc2)c1/C=C/[C@@H](O)C[C@@H](O)CC(=O)O` [rosuvastatin, bis[(E)-7-[4(4-fluorophenyl)-6-isopropyl-2-[methyl(methylsulfonyl)amino]-pyrimidin-5-yl](3R,5S)-3,5dihydroxyhept-6-enoic acid]], for which the “Substrate for cytochrome P450-based metabolism” value is on record as “poor substrate”.
